Laboratory results from patent US6635265B1, “Materials and methods useful for the control of insect larvae” (University of Florida Research Foundation, Inc., priority 1999, dated 2003).
Square brackets hold non-standard residues; d marks the D form. Ends that are not written are not given here.

Assays:
[1] = system: mosquito larvae; assay: Feeding TMOF and its analogue peptides to mosquito larvae (LD50); assay type: in vivo, Aedes aegypti; conditions: 100 μl microtiter plates, 7 days, diet of autoclaved yeast (1 mg/ml)
Description: TMOF can traverse the gut epithelium, enter the hemolymph and bind a gut receptor (Borovsky, D. and F. Mahmood (1995) “Feeding the mosquito Aedes aegypti with TMOF and its analogs; effect on trypsin biosynthesis and egg development,” Regulatory Peptides 57:273-281.; Borovsky, D., C. A. Powell, J. K. Nayar, J. E. Blalock, and T. K. Hayes (1994) “Characterization and localization of mosquito-gut receptors for trypsin modulating oostatic factor using complementary peptide immunochemistry” FASEB J. 8:350-355.). […] This characteristic permits testing of TMOF and its analogs by feeding them to mosquito and other pest larvae. To determine whether truncated TMOF peptides have an effect on larval growth and development, a series of peptides were synthesized and tested by feeding them to mosquito larvae at concentrations of 0.5 to 5.0 mg/ml (Table 1). Individual, newly hatched Aedes aegypti larvae were maintained in separate microtiter wells on a diet of autoclaved yeast (1 mg/ml). The diet was supplemented with TMOF peptides (Table 1). An identical number of larvae which were maintained on yeast served as a control. […] All control groups survived and larval growth and development was normal. Since larvae swallow only a small portion of the yeast particles that adsorbed the peptides, it is assumed that approximately 1 to 20 ng are taken orally at the high concentrations.

[2] = system: trypsin biosynthesis; assay: Injecting TMOF-R analogues into second instar Heliothis virescens: trypsin biosynthesis (BApNA); assay type: in vivo; conditions: second instar larvae, 24 hours after injection
Description: TMOF analogues (5 to 8 amino acids in length, and polymers of these analogues) in which Arg was added at the C-terminus were evaluated to determine their effect on larval growth and development. A series of analogues were synthesized and tested by feeding them to mosquito larvae at concentrations of (0.5 to 5.0 mg/ml; Table 4). Concentrations of 2.0 to 0.065 mg/ml were used to feed mosquito larvae and calculate the Lethal Dose at 50% mortality (LD50; Table 4) of the TMOF analogues. […] In both cases larval death and trypsin biosynthesis inhibition was noted (Table 4 and 5). […] The advantage of using short analogues connected by Arg is that they can be digested in the gut into short TMOF analogues that can penetrate the midgut much faster than longer analogues.
Individual second instar larvae of H. virescens were injected with TMOF-R analogues (10 to 0.25 μg per larva) and maintained in separate plastic cups on artificial diet. Twenty-four hours after the injections 3 groups of larvae (3 per group) were assayed for trypsin biosynthesis using BApNA (trypsin specific substrate; Table 5).

[3] = system: fourth instar Heliothis virescens; assay: Feeding TMOF analogs to fourth instar H. virescens: larval weight; assay type: in vivo; conditions: fourth instar larvae fed synthetic food and 0.8 mg of TMOF analogs for 5 days
Description: In both cases a reduction in weight gain and trypsin inhibition was noted (Tables 3 and 4).
(§1) Larvae were fed for 5 to 14 days and larval weight and trypsin activity were measured at the end of the experimental periods. […] When first instar larvae were fed for 14 days on analogs 15 and 16 (Table 4), an 18% and 26% reduction in weight was observed.

[4] = system: trypsin biosynthesis; assay: Feeding TMOF analogs to fourth instar H. virescens: gut trypsin biosynthesis ([3H]DFP); assay type: in vivo, Heliothis virescens; conditions: guts of fourth instar larvae after 5 days feeding on 0.8 mg of TMOF analogs
Description: as §1

[5] = system: first instar H. virescens larvae; assay: Feeding of first instar H. virescens on TMOF analogs for 14 days; assay type: in vivo, Heliothis virescens; conditions: first instar larvae fed individually 1.6 µg of TMOF analogs for 14 days

Q: How did the “LD50 mM ± S.E.M.” value [1] turn out when (D)YDP ([dY]-Asp-Pro) [43] was run?
A: 3 0.51 ± 0.05 mM

Q: How did the “LD50 mM ± S.E.M.” value [1] turn out when (D)YDPAP ([dY]DPAP) [46] was run?
A: 3 0.56 ± 0.03 mM

Q: Which “Inhibition (% ± S.E.M.) of trypsin biosynthesis” value ([2]; 0.5 μg/injection) does the source give for (DPAR)4 here?
A: 3 ± 0.3%

Q: And the “Inhibition (% ± S.E.M.) of trypsin biosynthesis” value ([2]; 1 μg/injection)?
A: 35 ± 7%

Q: And the “Inhibition (% ± S.E.M.) of trypsin biosynthesis” value ([2]; 10 μg/injection)?
A: 58 ± 36%

Q: Which “LD50 mM ± S.E.M.” value [1] does the source give for AAP (TMOF peptide) [16] here?
A: 3 1.08 ± 0.07 mM

Q: Which results are given for ADAAP (TMOF peptide) [56]?
A: Weight Gain [3]: 174.1 mg; Weight mg ± S.E.M. End [3]: 209.7 ± 12 mg; Inhibition (% ± S.E.M.) of trypsin biosynthesis [4]: 5 ± 0.6%; Trypsin μg ± S.E.M. [4]: 2.4 ± 0.3 µg; Number of Dead Larvae [5]: 0; Weight (mg) ± S.E.M. [5]: 141 ± 9 mg; Weight Reduction (%) ± S.E.M. [5]: 7 ± 0.4%

Q: Which “LD50 mM ± S.E.M.” value [1] does the source give for ADP (TMOF peptide) [17] here?
A: 3 > 6.6 mM

Q: For ADPAP (TMOF peptide) [18], which “LD50 mM ± S.E.M.” value [1] is on record?
A: 4 2.0 ± 0.36 mM

Q: How did the “LD50 mM ± S.E.M.” value [1] turn out when APA (TMOF peptide) [19] was run?
A: 3 1.0 ± 0.07 mM

Q: Which “LD50 mM ± S.E.M.” value [1] does the source give for DAA (TMOF peptide) [20] here?
A: 3 0.91 ± 0.06 mM

Q: With DPA as the substance, how does the “LD50 mM ± S.E.M.” value [1] read?
A: 3 0.4 ± 0.03 mM

Q: DPAR (TMOF-R analogue peptide) [60] was tested. Which “Inhibition (% ± S.E.M.) of trypsin biosynthesis” value ([2]; 1 μg/injection) did it give?
A: 17 ± 2%

Q: And the “Inhibition (% ± S.E.M.) of trypsin biosynthesis” value ([2]; 10 μg/injection)?
A: 100%

Q: With DYP (TMOF peptide) [24] as the substance, how does the “Weight Gain” value [3] read?
A: 180.5 mg

Q: And the “Weight mg ± S.E.M. End” value [3]?
A: 216.7 ± 13 mg

Q: And the “Inhibition (% ± S.E.M.) of trypsin biosynthesis” value [4]?
A: 14 ± 1.8%

Q: What about the “Trypsin μg ± S.E.M.” value [4] of the same substance?
A: 2.2 ± 0.3 µg

Q: What about the “LD50 mM ± S.E.M.” value [1] of the same substance?
A: 4 1.27 ± 0.17 mM

Q: What about the “Number of Dead Larvae” value [5] of the same substance?
A: 1

Q: What about the “Weight (mg) ± S.E.M.” value [5] of the same substance?
A: 149 ± 9 mg

Q: What about the “Weight Reduction (%) ± S.E.M.” value [5] of the same substance?
A: 9 ± 0.5%

Q: FAP (TMOF peptide) [25] was tested. Which “LD50 mM ± S.E.M.” value [1] did it give?
A: 3 3.8 ± 0.23 mM

Q: Which “LD50 mM ± S.E.M.” value [1] does the source give for FDP (TMOF peptide) [26] here?
A: 3 1.98 ± 0.6 mM

Q: With FDPAP (TMOF peptide) [27] as the substance, how does the “LD50 mM ± S.E.M.” value [1] read?
A: 3 0.37 ± 0.15 mM

Q: FSP (TMOF peptide) [28] was tested. Which “LD50 mM ± S.E.M.” value [1] did it give?
A: 3 2.3 ± 0.13 mM

Q: How did the “LD50 mM ± S.E.M.” value [1] turn out when MPDYP5 (MPDYPPPPP; TMOF peptide) [29] was run?
A: 3 > 3.0 mM

Q: Which “LD50 mM ± S.E.M.” value [1] does the source give for PAA (TMOF peptide) [30] here?
A: 3 2.4 ± 0.34 mM

Q: Which “LD50 mM ± S.E.M.” value [1] does the source give for PAP (TMOF peptide) [31] here?
A: 3 3.17 ± 0.14 mM

Q: Which “LD50 mM ± S.E.M.” value [1] does the source give for Y(D)DP (Tyr-[dD]-Pro) [32] here?
A: 3 0.28 ± 0.01 mM

Q: For Y(D)DPAP (Y[dD]PAP) [33], which “Weight Gain” value [3] is on record?
A: 153 mg

Q: What about the “Weight mg ± S.E.M. End” value [3] of the same substance?
A: 188 ± 12 mg

Q: What about the “Inhibition (% ± S.E.M.) of trypsin biosynthesis” value [4] of the same substance?
A: 15 ± 1.3%

Q: What about the “Trypsin μg ± S.E.M.” value [4] of the same substance?
A: 2.1 ± 0.2 µg

Q: What about the “LD50 mM ± S.E.M.” value [1] of the same substance?
A: 3 1.2 ± 0.3 mM

Q: And the “Number of Dead Larvae” value [5]?
A: 1

Q: And the “Weight (mg) ± S.E.M.” value [5]?
A: 152 ± 27 mg

Q: What about the “Weight Reduction (%) ± S.E.M.” value [5] of the same substance?
A: 7 ± 1%

Q: How did the “LD50 mM ± S.E.M.” value [1] turn out when YAP (TMOF peptide) [34] was run?
A: 3 2.3 ± 0.5 mM

Q: For YAPAP (TMOF peptide) [62], which “LD50 mM ± S.E.M.” value [1] is on record?
A: 3 0.54 ± 0.13 mM
